Reference: PubChem BioAssay AID623940 (Vanderbilt Specialized Chemistry Center, 2012)
Activity calls are given as the source filed them.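 How the source made its calls: active means a response that changes with dose, reported with a potency and a percent of the peak acetylcholine response; inactive means the rest.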

Each molecule was assayed against Muscarinic acetylcholine receptor M1 (Rattus norvegicus) (UniProt P08482) (assay: off-target potentiation of rat M1 ACh response – CHO cells, Fluo-4 calcium, ACh EC20, selectivity assay for M4 PAM optimization project, SAR follow-up (AID 623940)). Details: CHO rat M1, Fluo-4 calcium.
Chain of Muscarinic acetylcholine receptor M1 (Rattus norvegicus) (P08482 whole entry, looked up): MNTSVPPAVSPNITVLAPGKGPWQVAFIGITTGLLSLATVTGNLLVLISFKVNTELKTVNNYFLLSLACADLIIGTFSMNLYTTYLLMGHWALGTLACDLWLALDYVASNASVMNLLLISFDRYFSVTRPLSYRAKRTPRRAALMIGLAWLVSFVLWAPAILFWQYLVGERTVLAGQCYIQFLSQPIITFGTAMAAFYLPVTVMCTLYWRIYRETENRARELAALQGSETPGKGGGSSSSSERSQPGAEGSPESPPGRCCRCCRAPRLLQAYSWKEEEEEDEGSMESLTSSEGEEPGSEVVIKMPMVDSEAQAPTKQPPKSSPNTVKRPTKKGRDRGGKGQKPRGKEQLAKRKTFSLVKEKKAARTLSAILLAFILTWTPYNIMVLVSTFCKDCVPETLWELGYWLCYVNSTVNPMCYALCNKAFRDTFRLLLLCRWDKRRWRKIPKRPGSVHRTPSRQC

Q: With `Cc1nc2sc(C(=O)NCc3ccncc3)c(N)c2c(C)c1Cl` as the molecule, how does the outcome read?
A: inactive

Q: Which outcome does the source give for `Cc1nc2sc(C(=O)NCc3ccc4c(c3)OCO4)c(N)c2c(C)c1Cl` here?
A: inactive

Q: How did the outcome turn out when `Cc1nc2sc(C(=O)NCc3ccccc3)c(N)c2c(C)c1Cl` was run?
A: inactive

Q: Which outcome does the source give for `Cc1nc2sc(C(=O)NCc3cccnc3)c(N)c2c(C)c1Cl` here?
A: inactive

Q: How did the EC50 turn out when `Cc1nc2sc(C(=O)NC3CC3)c(N)c2c(C)c1Cl` was run?
A: 943 nM

Same assay, conditions: CHO rat M1, Fluo-4 calcium, at 30 µM (top of the series)

Q: Which “percent of ACh max response” value does the source give for `Cc1nc2sc(C(=O)NCc3ccncn3)c(N)c2c(C)c1Cl` here?
A: inactive

Q: For `Cc1nc2sc(C(=O)NCc3cccc(F)c3F)c(N)c2c(C)c1Cl`, which “percent of ACh max response” value is on record?
A: inactive

Q: Which “percent of ACh max response” value does the source give for `COc1ccc(C)c2sc(NC(=O)c3ccncc3)nc12` here?
A: inactive

Q: Which “percent of ACh max response” value does the source give for `Cc1nc2sc(C(=O)NCc3nccs3)c(N)c2c(C)c1Cl` here?
A: inactive

Q: `Cc1nc2sc(C(=O)NCCc3ccncc3)c(N)c2c(C)c1Cl` was tested. Which “percent of ACh max response” value did it give?
A: inactive
